{"source": "patent US10781212B2", "about": "“2,6-diamino pyridine compounds” (Eli Lilly and Company, priority 2018, dated 2020)", "key": {"human KHK-C": {"target": "human KHK-C (Homo sapiens (Human), UniProt P50053)", "sequence (P50053 whole entry)": "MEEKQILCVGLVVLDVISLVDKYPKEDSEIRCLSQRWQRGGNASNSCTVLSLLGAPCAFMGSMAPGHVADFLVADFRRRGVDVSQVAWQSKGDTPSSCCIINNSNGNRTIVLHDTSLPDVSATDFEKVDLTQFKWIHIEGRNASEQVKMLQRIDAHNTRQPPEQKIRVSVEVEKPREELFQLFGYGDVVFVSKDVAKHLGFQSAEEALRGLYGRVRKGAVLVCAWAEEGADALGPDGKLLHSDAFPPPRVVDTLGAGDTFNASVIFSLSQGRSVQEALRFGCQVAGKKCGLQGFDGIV", "assay": "KHK enzyme activity assay, human KHK-C", "type": "biochemical", "conditions": "fructose 250 μM, ATP 150 μM; read-out: hKHK-C IC50", "method": "(§1) KHK Enzyme Activity Assay for Human KHK-C and Human KHK-A\n(§2) Enzyme is prepared in assay buffer [50 mM 4-(2-hydroxyethyl)piperazine-1-ethanesulfonic acid (HEPES), 10 mM potassium chloride, 100 mM magnesium chloride, 2 mM tris(2-carboxyethyl)phosphine (TCEP), 0.01% n-octyl glucoside] and incubated with compounds at RT for 15 min. The reaction is carried out in 100 μL volumes containing substrate concentrations of fructose (250 μM for KHK-C assay and 1.25 mM for KHK-A assay) and ATP (150 μM for both isoforms); which are further incubated at RT for 20 min. The reaction is then halted by the addition of stop buffer; consisting of 0.2% formic acid and 1 μg/ml ^13C6-fructose-6-phosphate (^13C6-F6P) internal standard. […] RapidFire MS Analysis for Quantitation of F1P: […]\n(§3) Solvent A, used for sample loading and washing, is 6 mM octylamine (Acros Organics 129495000) brought to pH 5.0 using acetic acid. […] Samples are sequentially analyzed by aspirating 10 μL onto the collection loop under vacuum directly from multiwell plates. […]\n(§4) The triple quadrupole mass spectrometer is equipped with an ESI source and analytes are monitored using selected reaction monitoring (SRM) in negative mode [M−H]−. F1P is monitored at m/z 259.02/96.9 and ^13C6-fructose-6-phosphate is monitored at m/z 264.99/97. The area ratio values for F1P is calculated using ^13C6-fructose-6-phosphate as internal standard."}, "human KHK-A": {"target": "human KHK-A (Homo sapiens (Human), UniProt P50053)", "sequence (P50053 other isoform, or with tags, fused parts or gaps)": "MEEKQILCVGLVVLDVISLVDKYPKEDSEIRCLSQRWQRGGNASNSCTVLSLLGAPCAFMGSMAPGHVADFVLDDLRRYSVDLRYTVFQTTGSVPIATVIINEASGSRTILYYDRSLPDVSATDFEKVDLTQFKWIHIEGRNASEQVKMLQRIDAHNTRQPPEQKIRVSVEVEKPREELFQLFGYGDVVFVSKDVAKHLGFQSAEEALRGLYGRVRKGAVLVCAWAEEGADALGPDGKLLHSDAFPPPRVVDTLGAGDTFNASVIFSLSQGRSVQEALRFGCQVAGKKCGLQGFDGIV", "assay": "KHK enzyme activity assay, human KHK-A", "type": "biochemical", "conditions": "fructose 1.25 mM, ATP 150 μM; read-out: hKHK-A IC50", "method": "as §1, §2, §3, §4"}, "[1]": {"assay": "Pharmacokinetics in cynomolgus monkeys", "type": "in vivo", "conditions": "cynomolgus monkey, plasma, PO 10 mg/kg", "method": "(§5) Liquid Chromatograph with Tandem Mass Spectrometry (LC-MS/MS) Method for Pharmacokinetic Assays: Samples are extracted using a protein precipitation by adding 180 μL of MeOH:ACN (1:1, v/v) containing an internal standard and 25 μL (rodent samples) or 50 μL(non-rodent samples) of plasma. Samples are then diluted with Methanol:Water (1:1, v/v) to get concentrations within standard curve range. Diluted samples are analyzed by LC-MS/MS using a Sciex API 4000 triple quadrupole mass spectrometer (Applied Biosystems/MDS; Foster City, Calif.) equipped with a TurbolonSpray interface, and operated in positive ion mode. The analytes are chromatographically separated using a Thermo Betasil C18 5 um 20×2.1 mm Javelin column (rodent samples) or Advantage ECHIELON C18 4 um 20 mm×2.1 mm ID column (non-rodent samples). LC conditions are Water/1 M ammonium bicarbonate, (2000:10, v/v) (Mobile Phase A), and MeOH/1 M ammonium bicarbonate, (2000:10, v/v) (Mobile Phase B).\nThe compounds is administered by a single oral (PO; 10 mg/kg; volume of 5 mL/kg) dose in vehicle. Blood is collected from each animal at 0, 0.25, 0.5, 1, 2, 4, 8, 12, 24, 32, 48, and 72 h post-dosage. The plasma concentrations of Example 1 are determined by a LC-MS/MS method as described above."}, "human hepatocytes": {"system": "human hepatocytes", "assay": "Intrinsic clearance in human hepatocytes (-/+ABT)", "type": "in vitro ADME", "conditions": "with vs without ABT (pan-CYP450 inhibitor)", "method": "Intrinsic Clearance in Human Hepatocytes (−/+ABT)\nThis method is intended to identify in vitro metabolic clearance by substrate depletion in hepatocytes. Incubation in the presence and absence of ABT, a pan-CYP450 enzyme inhibitor, is used to estimate the contribution of CYP-mediated metabolism. Cryopreserved human hepatocytes are thawed at 37° C., spun down and reconstituted in hepatocyte maintenance media to a density of 1×10^6 viable cells/mL. To a pre-warmed 96-well plate, 196 μL of the hepatocyte suspension is added to each well. The cells are pre-incubated with and without ABT as follows: for ABT pre-incubation, 2 μL of 100 mM ABT solution is added (2 μL of media without ABT is added to control samples), and the plate incubated at 37° C. for 30 min under constant shaking (˜600 rpm). Following, 2 μL of a 30 μM stock solution of test article is added and at 0, 15, 30, 60, 120, 240 min 20 μL aliquots are taken and quenched by transfer to ACN containing internal standard. Following centrifugation at 4000 rpm for 30 min, supernatant concentrations are determined by LC-MS/MS. Clearance is calculated from the slope of % compound remaining over time."}, "OATP1B1": {"target": "OATP1B1 (Homo sapiens (Human), UniProt Q9Y6L6)", "sequence (Q9Y6L6 whole entry, species assumed)": "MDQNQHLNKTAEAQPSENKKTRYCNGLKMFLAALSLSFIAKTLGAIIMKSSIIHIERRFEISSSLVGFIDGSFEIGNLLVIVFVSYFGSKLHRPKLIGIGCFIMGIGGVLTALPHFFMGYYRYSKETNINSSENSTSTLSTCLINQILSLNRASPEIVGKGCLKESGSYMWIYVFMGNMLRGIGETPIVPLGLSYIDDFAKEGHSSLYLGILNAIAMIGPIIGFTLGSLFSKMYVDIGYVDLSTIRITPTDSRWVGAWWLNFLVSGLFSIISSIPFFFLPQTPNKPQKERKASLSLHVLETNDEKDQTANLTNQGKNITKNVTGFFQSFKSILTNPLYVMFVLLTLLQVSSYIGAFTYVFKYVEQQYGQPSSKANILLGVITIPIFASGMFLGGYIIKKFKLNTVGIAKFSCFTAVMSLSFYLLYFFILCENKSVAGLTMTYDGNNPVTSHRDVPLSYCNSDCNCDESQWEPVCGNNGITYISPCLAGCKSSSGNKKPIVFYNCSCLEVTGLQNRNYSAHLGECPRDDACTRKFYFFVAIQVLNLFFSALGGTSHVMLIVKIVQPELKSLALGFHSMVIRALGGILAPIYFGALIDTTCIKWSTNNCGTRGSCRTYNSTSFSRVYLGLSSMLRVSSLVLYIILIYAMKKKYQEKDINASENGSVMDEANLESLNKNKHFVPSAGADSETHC", "assay": "Inhibition of OATP1B1 (rosuvastatin uptake)", "type": "cell-based", "conditions": "rosuvastatin 400 nM substrate, 30 min pre-incubation", "method": "(§6) Inhibition of OATP1B1 and OATP1B3\n(§7) The OATP1B1, OATP1B3, and vector control (VC) cells are grown in 5% CO2 at 37° C. in a humidified atmosphere in DMEM supplemented with 10% FBS, 50 μg/mL gentamycin, and 5 μg/mL blasticidin. The cells are seeded in 24-well BioCoat Poly-D-Lysine plates. The cells are treated with 5 mM sodium butyrate in supplemented DMEM 24 h prior to experimentation. Cell cultures are washed twice with pre-warmed PBS prior to experimentation. After washing, all cell types are incubated for 30 min at 37° C. in 200 μL buffer, buffer plus varying concentration of test article, or with appropriate positive control inhibitor. Based upon preliminary data concentrations from 0.025 to 12.5 μM for OATP1B1 and 0.20 to 100 μM for OATP1B3 (nominal) are tested. At the start of the preincubation, 50 µL of buffer is removed for determination of in-well test article concentrations by LC-MS/MS. Following the pre-incubation period, the buffer is removed. […] Samples are taken from each well from plates to count for radioactivity and protein concentration in each well is determined by bicinchoninic acid method. IC50 values are determined by fitting the data using GraphPad Prism. Nominal concentrations are converted to measured concentrations prior to fitting."}, "OATP1B3": {"target": "OATP1B3 (Homo sapiens (Human), UniProt Q9NPD5)", "sequence (Q9NPD5 whole entry, species assumed)": "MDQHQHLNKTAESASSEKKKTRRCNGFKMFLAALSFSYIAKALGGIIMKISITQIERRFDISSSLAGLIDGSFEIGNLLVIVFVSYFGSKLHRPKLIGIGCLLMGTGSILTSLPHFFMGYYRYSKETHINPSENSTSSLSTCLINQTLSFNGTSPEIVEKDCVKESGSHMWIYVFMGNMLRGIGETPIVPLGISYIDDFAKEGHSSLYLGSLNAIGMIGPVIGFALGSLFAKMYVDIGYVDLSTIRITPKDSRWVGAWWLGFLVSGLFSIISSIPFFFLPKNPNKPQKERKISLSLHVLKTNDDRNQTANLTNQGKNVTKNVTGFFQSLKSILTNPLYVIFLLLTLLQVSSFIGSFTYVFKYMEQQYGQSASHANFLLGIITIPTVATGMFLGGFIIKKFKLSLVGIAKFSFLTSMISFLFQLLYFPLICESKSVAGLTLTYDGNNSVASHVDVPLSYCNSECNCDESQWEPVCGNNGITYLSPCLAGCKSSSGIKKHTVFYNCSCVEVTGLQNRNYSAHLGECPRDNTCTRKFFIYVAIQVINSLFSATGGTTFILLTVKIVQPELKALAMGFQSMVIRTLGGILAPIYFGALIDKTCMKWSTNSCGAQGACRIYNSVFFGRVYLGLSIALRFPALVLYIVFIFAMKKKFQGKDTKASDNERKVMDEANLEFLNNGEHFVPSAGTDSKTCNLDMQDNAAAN", "assay": "Inhibition of OATP1B3 (rosuvastatin uptake)", "type": "cell-based", "conditions": "rosuvastatin 400 nM substrate, 30 min pre-incubation", "method": "as §6, §7"}, "[2]": {"assay": "Pharmacokinetics in Beagle dogs", "type": "in vivo", "method": "as §5\nExample 1 is administered by a single oral (PO; 3 mg/kg; volume of 2 mL/kg) or intravenous (IV; 1 mg/kg; volume of 1 mL/kg) dose in vehicle. Blood is collected from each animal at 0, 0.03 (IV group only), 0.08 (IV), 0.25, 0.5, 1, 2, 4, 8, 12, 24, 32 (IV), 48 (IV), and 72 (IV) h post-dosage. The plasma concentrations of Example 1 are determined by a LC-MS/MS method as described above."}, "[3]": {"assay": "Pharmacokinetics in OATP1A/1B knockout mice", "type": "in vivo", "conditions": "OATP1A/1B knockout (Taconic #10707), mouse, IV 1 mg/kg", "method": "as §5\n(§8) Example 1 is administered by a single intravenous (IV; 1 mg/kg; volume of 1 mL/kg) dose in vehicle. Blood is collected from each animal at 0, 0.08, 0.25, 0.5, 1, 2, 4, 8, 12, and 24 h post-dosage. Liver, spleen, and pancreas is collected, weighed and perfused at 24 h post-dosage. The plasma and tissue concentrations of Example 1 are determined by a LC-MS/MS method as described above."}, "[4]": {"assay": "Pharmacokinetics in FVB wild type mice", "type": "in vivo", "conditions": "mouse, IV 1 mg/kg", "method": "as §5, §8"}, "[5]": {"assay": "Elimination pathways in bile duct cannulated Beagle dogs", "type": "in vivo", "conditions": "IV 1 mg/kg", "method": "as §5\nExample 1 is administered by a single intravenous (IV; 1 mg/kg; volume of 1 mL/kg) dose in vehicle. Blood is collected from each animal at 0, 0.033, 0.083, 0.25, 0.5, 1, 2, 4, 8, 12, 24, 32, 48 and 72 h post-dosage. Bile is collected from each animal at 1, 2, 3, 4, 5, 6, 12, 18, 24, 32, 48 and 72 h post-dosage. Urine is collected at 12, 24, 48, and 72 h and feces collected at 24, 48, and 72 h post-dosage. The plasma, bile, urine and feces concentrations of Example 1 are determined by a LC-MS/MS method as described above."}, "[6]": {"conditions": "liver at 24 h, read-out: mean liver unbound partition coefficient (Kpuu)"}, "[7]": {"conditions": "plasma, 1 mg/kg, heading: mean clearance"}, "[8]": {"conditions": "plasma, read-out: volume of distribution"}}, "data": [{"smiles": "C[C@H]1CCN1c1nc(N2CC(CC(=O)O)C2)cc(C(F)(F)F)c1C#N", "note": "[Example 2, 2-[1-[5-cyano-6-[(2S)-2-methylazetidin-1-yl]-4-(trifluoromethyl)-2-pyridyl]azetidin-3-yl]acetic Acid]", "values": [{"measurement": "IC50", "setting": "human KHK-C", "value": 27, "unit": "nM"}, {"measurement": "IC50", "setting": "human KHK-A", "value": 37, "unit": "nM"}]}, {"smiles": "C[C@H]1CCN1c1nc(N2CC[C@H](CC(=O)O)C2)cc(C(F)(F)F)c1C#N", "note": "[Example 1, 2-[(3R)-1-[5-cyano-6-[(2S)-2-methylazetidin-1-yl]-4-(trifluoromethyl)-2-pyridyl]pyrrolidin-3-yl]acetic Acid]", "values": [{"measurement": "half-life", "setting": "[1]", "value": 15.3, "unit": "h"}, {"measurement": "IC50", "setting": "human KHK-C", "value": 9, "unit": "nM"}, {"measurement": "inhibition of clearance by ABT", "setting": "human hepatocytes", "value": "~12", "unit": "%"}, {"measurement": "IC50", "setting": "OATP1B1", "value": 120, "unit": "nM"}, {"measurement": "IC50", "setting": "OATP1B3", "value": 5500, "unit": "nM"}, {"measurement": "mean half-life", "setting": "[2]; IV 1 mg/kg", "value": 7.4, "unit": "h"}, {"measurement": "clearance", "setting": "[2]; dog, plasma, 1 mg/kg, heading: mean clearance, IV 1 mg/kg", "value": 2.52, "unit": "mL/min/kg"}, {"measurement": "half-life", "setting": "[2]; dog, plasma, IV 1 mg/kg", "value": 7.4, "unit": "h"}, {"measurement": "Vd", "setting": "[2]; dog, plasma, IV 1 mg/kg, read-out: volume of distribution", "value": 1.33, "unit": "L/kg"}, {"measurement": "bioavailability", "setting": "[2]; dog, plasma, PO 3 mg/kg", "value": "~93", "unit": "%"}, {"measurement": "half-life", "setting": "[2]; dog, plasma, PO 3 mg/kg", "value": 6.9, "unit": "h"}, {"measurement": "Kp uu at 24 h", "setting": "[3]; [6]", "value": 24.2}, {"measurement": "clearance", "setting": "[3]; [7]", "value": 1.34, "unit": "mL/min/kg"}, {"measurement": "half-life", "setting": "[3]; plasma", "value": 9.36, "unit": "h"}, {"measurement": "Vd", "setting": "[3]; [8]", "value": 0.986, "unit": "L/kg"}, {"measurement": "IC50", "setting": "human KHK-A", "value": 19, "unit": "nM"}, {"measurement": "Kp uu at 24 h", "setting": "[4]; [6]", "value": 67.5}, {"measurement": "clearance", "setting": "[4]; [7]", "value": 6.91, "unit": "mL/min/kg"}, {"measurement": "half-life", "setting": "[4]; plasma", "value": 5.43, "unit": "h"}, {"measurement": "Vd", "setting": "[4]; [8]", "value": 2.74, "unit": "L/kg"}, {"measurement": "administered IV dose recovered in bile", "setting": "[5]", "value": "~10", "unit": "%"}, {"measurement": "urine levels", "setting": "[5]", "value": "negligible"}, {"measurement": "clearance", "setting": "[5]; dog, plasma, 1 mg/kg, heading: mean clearance", "value": 4.69, "unit": "mL/min/kg"}, {"measurement": "half-life", "setting": "[5]; dog, plasma", "value": 2.9, "unit": "h"}, {"measurement": "Vd", "setting": "[5]; dog, plasma, read-out: volume of distribution", "value": 0.546, "unit": "L/kg"}]}]}
